In US7910593B2, “Water-soluble prodrugs” (Chugai Seiyaku Kabushiki Kaisha, priority 2004, dated 2011):

Tests used:
[1] = Test Example 1: conversion of compound 2A into activated form in monkey serum; assay type: in vitro ADME; settings: for compound 2A (measured values, %): monkey serum, 50 μM, 37° C.
Experimental: The percentages of compound 2A produced in Example 2 being converted into an activated form in sera of humans, mice, monkeys, and dogs were determined. The activated form is in a rapid equilibrium between the lactone form and the carboxylate form, which were quantified separately.
Compound 2A was incubated at 37° C. at a concentration of 50 μM in sera of humans, mice, monkeys, and dogs. Incubation was terminated at a given time (0, 30, 60, 120, and 360 minutes), and the samples were analyzed by HPLC after deproteinization treatments.
Conditions for the HPLC analysis are as follows: • HPLC conditions • Column: Develosil C30-UG-3, 3 μm, 50×4.6 mm I.D • Column Temperature: constant temperature at approximately 25° C. • Mobile phase: A: 10 mM phosphate buffer (pH4.7) • B: acetonitrile • /B (min): 90/10(0)→90/10(0.4)→40/60(6)→2/98(8)→90/10(9)→90/10(15)
Flow rate: 1.0 mL/min • Detection: photodiode array detector, detection wavelength 350 nm • Amount injected: 30 μL
(§1) Generally, camptothecins in solution are in a rapid equilibrium between a structure in which the carbonyl at position 3 forms a 6-membered cyclic ester with the oxygen at position 2, and its open-ring structure. The lactone form refers to the former condition and the carboxylate form refers to the latter condition.

[2] = Test Example 5: conversion of compound 2A into activated form in human sera; assay type: in vitro ADME; settings: for compound 2A (measured values, %): Test Example 5, human sera, 50 μM, 37° C.
Experimental: (§2) The percentages of compound 2A produced in Example 2 being converted into an activated form in sera of humans, rats, mice, monkeys, and dogs were determined. The activated form is in a rapid equilibrium between the lactone form and the carboxylate form, which were quantified separately.
(§3) Compound 2A was incubated at 37° C. at a concentration of 50 μM in sera of humans, mice, rats, monkeys, and dogs. Incubation was terminated at a given time (0, 30, 60, 120, and 360 minutes), and the samples were analyzed by HPLC after deproteinization treatments.
(§4) Conditions for the HPLC analysis are as follows: • HPLC conditions • Column: Develosil C30-UG-3, 3 μm, 35×4.6 mm I.D • Column Temperature: constant temperature at approximately 25° C. • Mobile phase: A: 10 mM phosphate buffer (pH4.7) • B: acetonitrile • /B (min): 90/10(0)→90/10(0.4)→40/60(6)→2/98(8)→90/10(9)→90/10(15) • Flow rate: 1.0 mL/min • Detection: photodiode array detector, detection wavelength 350 nm • Amount injected: 30 μL
as §1

[3] = Test Example 5: conversion of compound 2A into activated form in rat sera; assay type: in vitro ADME; settings: for compound 2A (measured values, %): Test Example 5, rat sera, 50 μM, 37° C.
Experimental: as §2, §3, §4, §1

[4] = Test Example 2: stability at various pH values in buffers; assay type: physicochemical; settings: for Percent remaining: 25 μM, 25° C.
Experimental: The stability of compound 2A at various pH values was determined. The present compound was placed in buffers of various pHs at a concentration of 25 μM. After incubation at 25° C. for 0, 3, and 6 hours, the compound was analyzed by HPLC.
The buffers used at each pH are shown below. • pH2.0: 50 mM HCl-KCl buffer • pH3.0: 50 mM citrate buffer • pH4.0: 50 mM citrate buffer • pH5.0: 50 mM succinate buffer • pH6.5: 50 mM phosphate buffer • pH7.4: 50 mM phosphate buffer
Conditions for HPLC analysis are as follows: • HPLC conditions • Column: Develosil C30-UG-3, 3 μm, 50×4.6 mm I.D • Column Temperature: constant temperature at approximately 25° C. • Mobile phase: A: 10 mM phosphate buffer (pH4.7) • B: acetonitrile • (min): 90/10(0)→90/10(0.4)→40/60(6)→2/98(8)→90/10(9)→90/10(15) • Flow rate: 1.0 mL/min • Detection: photodiode array detector, detection wavelength 350 nm • Amount injected: 30 μL

[5] = Test Example 3: solubility in distilled water; assay type: physicochemical; settings: distilled water; read-out: Solubility in distilled water
Description: The solubility of the water-soluble prodrugs obtained in the Examples (compounds 1A to 8A) in distilled water was compared to the solubility of (9S)-9-ethyl-9-hydroxy-1-pentyl-1H,12H-pyrano[3″,4″:6′,7′]indolizino[1′,2′:6,5]pyrido[4,3,2-de]quinazoline-10,13 (9H,15H)-dione (representative compound in Patent document 2: reference compound 1).

[6] = test system: human colon cancer cell line HCT116; experiment: Test Example 4: antitumor effect in HCT116 tumor-bearing nude mice; assay type: in vivo, BALB/c nude mice; settings: once per week for three weeks
Experimental: Antitumor effects were determined for representative examples of the group of compounds of the present invention. Tumor-bearing mice were generated by subcutaneous transplantation of human colon cancer cell line HCT116 obtained from American Type Culture Collection (Virginia, USA) into the right flank of BALB/c nude mice purchased from Charles River Japan, and used for determination of antitumor effects.
After a one-week quarantine period, the purchased nude mice were subjected to subcutaneous transplantation of 5×10^6 HCT116 cells at their right flank. Mice with a tumor size reaching 200 mm^3 or so were subjected to the experiment.
The compounds were dissolved in 1 mM citric bufferes saline, pH 4, and administered intravenously. The administration was carried out once per week for three weeks, for a total of three administrations. The antitumor effect was determined as tumor growth inhibition (TGI) using the following equation. Tumor growth inhibition (TGI) (%)={(1−mean tumor volume change in the drug-treated group/mean tumor volume change in the control group)×100} The results are shown in Table 6.

Question: With CCCCCN1C=Nc2cccc3nc4c(c1c23)Cn1c-4cc2c(c1=O)COC(=O)[C@@]2(CC)OC(=O)CN(C)C(=O)CN.Cl [Compound 2A, (9S)-9-Ethyl-9-(glycyl-sarcosyloxy)-1-pentyl-1H,12H-pyrano[3″,4″:6′,7′]indolizino[1′,2′:6,5]pyrido[4,3,2-de]quinazoline-10,13(9H,15H)-dione hydrochloride] as the compound, how does the “conversion to the lactone form (in words)” value (from here on “conversion”) ([1]; monkey sera, Test Example 1) read?
Answer: quickly converted to the lactone form

Question: What about the “compound 2A (measured values, %)” value ([1]; incubation 0 minutes) of the same compound?
Answer: 0%

Question: And the “compound 2A (measured values, %)” value ([1]; incubation 30 minutes)?
Answer: 0%

Question: And the “compound 2A (measured values, %)” value ([1]; incubation 60 minutes)?
Answer: 0%

Question: And the “compound 2A (measured values, %)” value ([1]; incubation 120 minutes)?
Answer: 0%

Question: And the “compound 2A (measured values, %)” value ([1]; incubation 360 minutes)?
Answer: 0%

Question: And the “compound 2A (measured values, %)” value ([2]; incubation 0 minutes)?
Answer: 0%

Question: What about the “compound 2A (measured values, %)” value ([2]; incubation 30 minutes) of the same compound?
Answer: 0%

Question: And the “compound 2A (measured values, %)” value ([2]; incubation 60 minutes)?
Answer: 0%

Question: What about the “compound 2A (measured values, %)” value ([2]; incubation 120 minutes) of the same compound?
Answer: 0%

Question: What about the “compound 2A (measured values, %)” value ([2]; incubation 360 minutes) of the same compound?
Answer: 0%

Question: And the “conversion” value ([2]; human sera, Test Example 5)?
Answer: quickly converted to the lactone form

Question: And the “compound 2A (measured values, %)” value ([3]; incubation 0 minutes)?
Answer: 0%

Question: And the “compound 2A (measured values, %)” value ([3]; incubation 30 minutes)?
Answer: 0%

Question: And the “compound 2A (measured values, %)” value ([3]; incubation 60 minutes)?
Answer: 0%

Question: What about the “compound 2A (measured values, %)” value ([3]; incubation 120 minutes) of the same compound?
Answer: 0%

Question: What about the “compound 2A (measured values, %)” value ([3]; incubation 360 minutes) of the same compound?
Answer: 0%

Question: And the “conversion” value ([3]; rat sera, Test Example 5)?
Answer: quickly converted to the lactone form

Question: And the Percent remaining ([4]; pH 2.0, 50 mM HCl-KCl buffer, 0 hr)?
Answer: 100%

Question: And the Percent remaining ([4]; pH 2.0, 50 mM HCl-KCl buffer, 3 hr)?
Answer: 101.6%

Question: And the Percent remaining ([4]; pH 2.0, 50 mM HCl-KCl buffer, 6 hr)?
Answer: 101.1%

Question: And the Percent remaining ([4]; pH 3.0, 50 mM citrate buffer, 0 hr)?
Answer: 100%

Question: What about the Percent remaining ([4]; pH 3.0, 50 mM citrate buffer, 3 hr) of the same compound?
Answer: 100.3%

Question: And the Percent remaining ([4]; pH 3.0, 50 mM citrate buffer, 6 hr)?
Answer: 101.1%

Question: What about the Percent remaining ([4]; pH 4.0, 50 mM citrate buffer, 0 hr) of the same compound?
Answer: 100%

Question: And the Percent remaining ([4]; pH 4.0, 50 mM citrate buffer, 3 hr)?
Answer: 98.2%

Question: What about the Percent remaining ([4]; pH 4.0, 50 mM citrate buffer, 6 hr) of the same compound?
Answer: 96.1%

Question: And the Percent remaining ([4]; pH 5.0, 50 mM succinate buffer, 0 hr)?
Answer: 100%

Question: What about the Percent remaining ([4]; pH 5.0, 50 mM succinate buffer, 3 hr) of the same compound?
Answer: 76.6%

Question: And the Percent remaining ([4]; pH 5.0, 50 mM succinate buffer, 6 hr)?
Answer: 58.7%

Question: And the Percent remaining ([4]; pH 6.5, 50 mM phosphate buffer, 0 hr)?
Answer: 100%

Question: And the Percent remaining ([4]; pH 6.5, 50 mM phosphate buffer, 3 hr)?
Answer: 0%

Question: And the Percent remaining ([4]; pH 6.5, 50 mM phosphate buffer, 6 hr)?
Answer: 0%

Question: What about the Percent remaining ([4]; pH 7.4, 50 mM phosphate buffer, 0 hr) of the same compound?
Answer: 100%

Question: What about the Percent remaining ([4]; pH 7.4, 50 mM phosphate buffer, 3 hr) of the same compound?
Answer: 0%

Question: And the Percent remaining ([4]; pH 7.4, 50 mM phosphate buffer, 6 hr)?
Answer: 0%

Question: What about the “stability (in words)” value ([4]; up to pH3) of the same compound?
Answer: stable

Question: And the solubility [5]?
Answer: > 10000 µg/mL

Question: And the “TGI (%) on Day 21” value ([6]; 0.9 mg/kg intravenously)?
Answer: 45%

Question: And the “TGI (%) on Day 21” value ([6]; 1.9 mg/kg intravenously)?
Answer: 52%

Question: What about the “TGI (%) on Day 21” value ([6]; 3.75 mg/kg intravenously) of the same compound?
Answer: 72%

Question: And the “TGI (%) on Day 21” value ([6]; 7.5 mg/kg intravenously)?
Answer: 74%

Question: What about the “TGI (%) on Day 21” value ([6]; 15 mg/kg intravenously) of the same compound?
Answer: 85%

Question: And the “TGI (%) on Day 21” value ([6]; 30 mg/kg intravenously)?
Answer: 97%

Question: And the “TGI (%) on Day 21” value ([6]; 60 mg/kg intravenously)?
Answer: 110%
